Laboratory results: PubChem BioAssay AID449727 (Sanford-Burnham Center for Chemical Genomics, 2010)

What follows are compounds tested against Tyrosine-protein phosphatase non-receptor type 22 (Homo sapiens) (UniProt Q9Y2R2) (assay: inhibition of lymphoid tyrosine phosphatase LYP – biochemical, pCAP fluorogenic substrate, fluorescence, set 3, SAR follow-up (AID 449727)). Details: recombinant LYP.
Chain of Tyrosine-protein phosphatase non-receptor type 22 (Homo sapiens) (Q9Y2R2 whole entry, looked up): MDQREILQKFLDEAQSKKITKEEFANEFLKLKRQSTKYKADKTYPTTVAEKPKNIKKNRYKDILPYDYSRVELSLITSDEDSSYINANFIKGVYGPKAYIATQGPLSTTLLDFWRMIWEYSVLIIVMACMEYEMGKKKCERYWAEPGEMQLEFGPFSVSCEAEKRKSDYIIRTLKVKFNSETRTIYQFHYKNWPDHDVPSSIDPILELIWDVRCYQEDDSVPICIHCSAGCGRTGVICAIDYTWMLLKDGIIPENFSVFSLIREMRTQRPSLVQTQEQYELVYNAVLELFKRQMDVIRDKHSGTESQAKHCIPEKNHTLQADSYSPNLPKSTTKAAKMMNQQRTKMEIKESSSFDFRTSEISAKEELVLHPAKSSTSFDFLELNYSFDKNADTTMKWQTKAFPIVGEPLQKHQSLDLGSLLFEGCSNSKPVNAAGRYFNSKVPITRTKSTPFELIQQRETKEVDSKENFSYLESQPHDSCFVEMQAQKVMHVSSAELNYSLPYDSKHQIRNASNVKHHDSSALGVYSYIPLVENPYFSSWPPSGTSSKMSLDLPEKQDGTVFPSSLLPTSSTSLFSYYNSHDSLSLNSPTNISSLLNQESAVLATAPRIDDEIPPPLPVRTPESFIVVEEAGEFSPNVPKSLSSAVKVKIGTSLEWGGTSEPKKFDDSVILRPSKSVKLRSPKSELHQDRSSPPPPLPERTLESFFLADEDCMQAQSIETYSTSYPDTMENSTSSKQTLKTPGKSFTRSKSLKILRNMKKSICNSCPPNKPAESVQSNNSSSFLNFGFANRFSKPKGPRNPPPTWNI

In order of falling IC50:
1. CCc1ccc(/C=C2\SC(=S)N(CCCC(=O)Nc3ccc(C(=O)O)cc3)C2=O)cc1  76 µM
2. Cc1c(Cl)cccc1NS(=O)(=O)c1ccc2c(c1)C1C=CCC1C(c1ccc(C(=O)O)cc1)N2 (stereo unspecified)  47 µM
3. CCOC(=O)C1=C(C)N=c2s/c(=C/c3cc(Cl)c(OCC(=O)O)c(OC)c3)c(=O)n2C1c1ccccc1Cl (stereo unspecified)  30.6 µM
4. N#C/C(=C\c1ccc(OCc2ccc(Cl)cc2)cc1)C(=O)Nc1cccc(C(=O)O)c1  6.36 µM
5. O=C(O)CCCN1C(=O)/C(=C/c2ccc(-c3nc4ccccc4s3)o2)SC1=S  3.96 µM
6. COc1ccc(/C=C2\SC(=S)N(CCC(=O)Nc3ccc(C(=O)O)cc3)C2=O)cc1OC  2.94 µM
